The source of these data is the supplement of paper PMC10307832.

Holding throughout (assay): relative viability (nuclei count vs DMSO), 5 days (fraction); higher = more cells survive
Compound in assay [1]: CC[C@H](C)N1C=C(C2=C(C=C(C=C21)C3=CN=C(C=C3)N4CCNCC4)C(=O)NCC5=C(C=C(NC5=O)C)C)C [GSK126] + Cc1cc(Nc2cc(N3CCN(C)CC3)nc(Sc3ccc(NC(=O)C4CC4)cc3)n2)n[nH]1 [Tozasertib] (partner 0.1 µM)
The procedure, abridged: (§1)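 Relative viability equals treated-well nuclei counts divided by vehicle-well nuclei counts. Counts came from 4× images of lung cancer cell lines grown in 1536-well plates for 5 days after pin-tool dosing on the day after seeding. Dosing used one drug alone or a fixed anchor-drug dose plus five library-drug doses (not always all listed) in √10 steps, and values are medians of duplicate plates.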

Compound in assay [2]: NS(=O)(=O)OC[C@@H]1C[C@@H](n2ccc3c(N[C@H]4CCc5ccccc54)ncnc32)C[C@@H]1O [MLN4924] + CC(=O)Nc1cccc(-n2c(=O)n(C3CC3)c(=O)c3c(Nc4ccc(I)cc4F)n(C)c(=O)c(C)c32)c1 [Trametinib] (partner 0.02 µM)
The procedure, abridged: as §1

Compound in assay [3]: NS(=O)(=O)OC[C@@H]1C[C@@H](n2ccc3c(N[C@H]4CCc5ccccc54)ncnc32)C[C@@H]1O [MLN4924] + Nc1ncn([C@H]2C[C@H](O)[C@@H](CO)O2)c(=O)n1 [Decitabine] (partner 2 µM)
An outline of the steps: as §1

Compound in assay [4]: C1CC(C1)(C(=O)O)C(=O)O.[NH2-].[NH2-].[Pt+2] [Carboplatin] + CS(=O)(=O)N1CCN(Cc2cc3nc(-c4cccc5[nH]ncc45)nc(N4CCOCC4)c3s2)CC1 [Pictilisib] (partner 1 µM)
The procedure, abridged:
as §1

For UMC-11, the relative viability worked out at 0.205 in assay [1] (first compound 0.08 µM); 0.209 in assay [1] (first compound 0.253 µM); 0.197 in assay [1] (first compound 0.8 µM); 0.188 in assay [1] (first compound 2.53 µM); 0.199 in assay [1] (first compound 8 µM); 0.487 in assay [2] (first compound 0.04 µM). Also, the relative viability came out at 0.367 in assay [2] (first compound 0.1265 µM); 0.253 in assay [2] (first compound 0.4 µM); 0.115 in assay [2] (first compound 1.265 µM); 0.142 in assay [2] (first compound 4 µM); 0.559 in assay [3] (first compound 0.04 µM); 0.511 in assay [3] (first compound 0.1265 µM). Besides, the relative viability in assay [3] (first compound 0.4 µM) stood at 0.402; in assay [3] (first compound 1.265 µM), 0.309; in assay [3] (first compound 4 µM), 0.277; in assay [4] (first compound 0.08 µM) it was 0.779; in assay [4] (first compound 0.253 µM), 0.777; in assay [4] (first compound 0.8 µM), 0.76. The relative viability amounted to 0.78 in assay [4] (first compound 2.53 µM) and 0.587 in assay [4] (first compound 8 µM).
